Measurements taken from ChEMBL document CHEMBL1857833, “Screening and optimization of specific chemical series against human African Trypanosomiasis (HAT)”.
≈ marks a conversion by molar mass, not a printed value. Each block holds one compound with its values, some of them ahead of it.

What was measured:
in vitro [1] = conditions: mouse, liver microsomes
Description: (§4) DNDI: in vitro intrinsic clearance in mouse liver microsomes at a concentration of 1uM

Trypanosoma brucei [2] = experiment: DNDI: Inhibition of Human African Trypanosomiasis, SBRI 427, in vitro; assay type: functional, organism-based
[3] = DNDI: Cytotoxicity against L929 mouse fibroblasts, CYTO-SP, 24 hour; assay type: toxicity, cell-based; conditions: mouse, L929 mouse fibroblasts
[4] = mouse, microsomes, 1 µM
Description: as §4

[5] = DNDI: Lipophilicity measured in Chromatographic hydrophobicity index (CHI) assay, pH 7.4; assay type: physicochemical; conditions: buffer
[6] = human, microsomes, 1 µM
Description: (§5) DNDI: in vitro intrinsic clearance in human liver microsomes at a concentration of 1uM

in vitro [7] = conditions: human, liver microsomes, CLint in vitro
Description: as §5

[8] = human, microsomes, 1 µM; remark: listed apart in the source
Description: (§6) DNDI: half life in human liver microsomes at a concentration of 1uM

in vitro [9] = conditions: mouse, liver microsomes, t (1 / 2)
Description: DNDI: half life in mouse liver microsomes at a concentration of 1uM

[10] = DNDI: Solubility in phosphate buffered saline at pH7.4 measured by nephelometry at room temperature (NEPH-RT); assay type: physicochemical; conditions: pH 7.4
in vitro [11] = conditions: human, liver microsomes, t (1 / 2)
Description: as §6

[12] = DNDI: in vitro intrinsic clearance in mouse liver microsomes at a concentration of 10uM; assay type: ADME, Microsome; conditions: read-out: CLint in vitro
[13] = DNDI: Solubility in phosphate buffered saline at pH7.4 measured by optical density (turbidimetry) at room temperature (OD-RT); assay type: physicochemical; conditions: pH 7.4
Trypanosoma brucei [14] = experiment: DNDI: Mean survival time in days (MSD) of mice after intraperitoneal injection of Human African Trypanosomiasis (HAT), EATRO 110, in vivo at 5 mg/kg/day for 4 days.; assay type: functional, Mus musculus
Trypanosoma brucei [15] = experiment: DNDI: Inhibition of Human African Trypanosomiasis, EATRO 110, in vitro; assay type: functional, organism-based
MDR1 (ABCB1) [16] = biological target: T1, MDR1 (ABCB1) (Homo sapiens, UniProt P08183); experiment: DNDI: % of compound recovered from basolateral to apical permeability assay in MDCK cells transfected with human MDR1; assay type: ADME, cell-based, Canis lupus familiaris; conditions: dog
T1 sequence (P08183 whole entry): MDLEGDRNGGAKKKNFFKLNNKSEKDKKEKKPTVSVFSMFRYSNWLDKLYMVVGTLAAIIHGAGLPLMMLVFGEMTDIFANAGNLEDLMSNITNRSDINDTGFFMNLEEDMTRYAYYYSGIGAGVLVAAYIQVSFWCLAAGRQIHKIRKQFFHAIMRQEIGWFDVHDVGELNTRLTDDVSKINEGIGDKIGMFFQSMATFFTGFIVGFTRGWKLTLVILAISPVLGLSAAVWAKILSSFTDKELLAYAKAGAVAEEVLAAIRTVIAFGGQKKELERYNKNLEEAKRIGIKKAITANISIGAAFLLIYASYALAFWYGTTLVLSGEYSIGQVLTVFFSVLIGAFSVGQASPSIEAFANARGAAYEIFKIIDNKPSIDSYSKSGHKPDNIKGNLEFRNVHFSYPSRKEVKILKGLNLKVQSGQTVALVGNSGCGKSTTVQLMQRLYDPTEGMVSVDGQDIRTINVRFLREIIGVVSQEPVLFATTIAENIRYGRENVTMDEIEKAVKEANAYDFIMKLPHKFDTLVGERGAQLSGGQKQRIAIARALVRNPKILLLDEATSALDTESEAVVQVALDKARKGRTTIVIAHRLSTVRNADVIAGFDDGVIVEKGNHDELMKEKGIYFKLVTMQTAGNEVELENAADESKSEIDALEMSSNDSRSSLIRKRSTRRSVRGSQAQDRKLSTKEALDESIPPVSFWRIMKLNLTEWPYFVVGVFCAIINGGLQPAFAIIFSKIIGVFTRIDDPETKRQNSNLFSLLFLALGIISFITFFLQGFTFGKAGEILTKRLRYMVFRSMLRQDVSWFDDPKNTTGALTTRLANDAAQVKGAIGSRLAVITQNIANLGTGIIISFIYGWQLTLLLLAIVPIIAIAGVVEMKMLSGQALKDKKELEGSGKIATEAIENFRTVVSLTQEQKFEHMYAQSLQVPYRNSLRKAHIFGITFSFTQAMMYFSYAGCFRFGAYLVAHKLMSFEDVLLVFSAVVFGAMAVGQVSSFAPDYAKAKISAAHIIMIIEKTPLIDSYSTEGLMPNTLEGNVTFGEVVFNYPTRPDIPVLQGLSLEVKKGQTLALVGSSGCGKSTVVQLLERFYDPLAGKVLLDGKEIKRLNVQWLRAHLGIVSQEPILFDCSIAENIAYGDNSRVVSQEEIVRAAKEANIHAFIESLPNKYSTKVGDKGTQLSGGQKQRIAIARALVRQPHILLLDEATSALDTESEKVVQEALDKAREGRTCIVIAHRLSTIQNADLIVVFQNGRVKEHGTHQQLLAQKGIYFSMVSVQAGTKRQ

Trypanosoma brucei [17] = experiment: DNDI: Mean survival time in days (MSD) of mice after intraperitoneal injection of Human African Trypanosomiasis (HAT), EATRO 110, in vivo at 2.5 mg/kg/day for 4 days.; assay type: functional, Mus musculus
Trypanosoma brucei [18] = experiment: DNDI: Mean survival time in days (MSD) of mice after intraperitoneal injection of Human African Trypanosomiasis (HAT), EATRO 110, at 0.5 mg/kg/day for 4 days.; assay type: functional, Mus musculus
MDR1 (ABCB1) [19] = biological target: T1, MDR1 (ABCB1); experiment: DNDI: Apparent permeability from apical to basolateral side of the MDCK cell transfected with human MDR1; assay type: ADME, cell-based, Canis lupus familiaris; conditions: dog
Trypanosoma brucei [20] = experiment: DNDI: Mean survival time in days (MSD) of mice after intraperitoneal injection of Human African Trypanosomiasis (HAT), EATRO 110, in vivo at 20 mg/kg/day for 4 days.; assay type: functional, Mus musculus
MDR1 (ABCB1) [21] = biological target: T1, MDR1 (ABCB1); experiment: DNDI: % of compound recovered from apical to basolateral permeability assay in MDCK cells transfected with human MDR1; assay type: ADME, cell-based, Canis lupus familiaris; conditions: dog
[22] = DNDI: half life in mouse liver microsomes at a concentration of 10uM; assay type: ADME, Microsome
MDR1 (ABCB1) [23] = biological target: T1, MDR1 (ABCB1); experiment: (§1) DNDI: Efflux ratio for permeability from basolateral to apical side to apical to basolateral side of MDCK cells transfected with human MDR1; assay type: ADME, cell-based, Canis lupus familiaris; conditions: dog
MDR1 (ABCB1) [24] = biological target: T1, MDR1 (ABCB1); experiment: DNDI: Apparent permeability from basolateral to apical side of the MDCK cell transfected with human MDR1 after 60 mins at a concentration of 3uM; assay type: ADME, cell-based, Canis lupus familiaris; conditions: dog
Trypanosoma brucei [25] = experiment: DNDI: Mean survival time in days (MSD) of mice after intraperitoneal injection of Human African Trypanosomiasis (HAT), EATRO 110, in vivo at 1.25 mg/kg/day for 4 days.; assay type: functional, Mus musculus
Trypanosoma brucei [26] = experiment: DNDI: Mean survival time in days (MSD) of mice after intraperitoneal injection of Human African Trypanosomiasis (HAT), EATRO 110, in vivo at 12.5 mg/kg/day for 4 days.; assay type: functional, Mus musculus
[27] = DNDI: % of compound remaining in mouse S9 microsomes at a concentration of 1uM after 60 mins; assay type: ADME, subcellular, Liver, S9 fraction
Trypanosoma brucei [28] = experiment: DNDI: Mean survival time in days (MSD) of mice after intraperitoneal injection of Human African Trypanosomiasis (HAT), EATRO 110, in vivo at 50 mg/kg/day for 4 days.; assay type: functional, Mus musculus
[29] = DNDI: % of compound remaining in rat S9 microsomes at a concentration of 1uM; assay type: ADME, subcellular, Liver, S9 fraction
Trypanosoma brucei [30] = experiment: DNDI: Mean survival time in days (MSD) of mice after intraperitoneal injection of Human African Trypanosomiasis (HAT), STIB 795, in vivo at 50 mg/kg/day for 4 days.; assay type: functional, Mus musculus
[31] = (§2) DNDI: Cytotoxicity against L929 mouse fibroblasts, 72 hour.; assay type: toxicity, cell-based; conditions: mouse, L929 mouse fibroblasts
L929 = experiment: as §2; assay type: toxicity, cell-based; conditions: l929
[32] = biological target: T2, ATP-dependent translocase ABCB1 (Homo sapiens, UniProt P08183); experiment: (§3) DNDI: Apparent permeability from apical to basolateral side of the MDCK cell transfected with human MDR1after 60 mins at a concentration of 3uM; assay type: ADME, cell-based, Canis lupus familiaris; conditions: dog, mdck, 1 h, 3 µM
T2 sequence (P08183 whole entry): as above

[33] = biological target: T2, ATP-dependent translocase ABCB1; experiment: DNDI: Apparent permeability from basolateral to apical side of the MDCK cell transfected with human MDR1after 60 mins at a concentration of 3uM; assay type: ADME, cell-based, Canis lupus familiaris; conditions: dog, 1 h
MDR1 (ABCB1) [34] = biological target: T1, MDR1 (ABCB1); experiment: DNDI: % of compound recovered from basolateral to apical permeability assay in MDCK cells transfected with human MDR1 after 60 mins at a concentration of 3uM; assay type: ADME, cell-based, Canis lupus familiaris; conditions: dog
[35] = biological target: T2, ATP-dependent translocase ABCB1; experiment: as §1; assay type: ADME, cell-based, Canis lupus familiaris; conditions: dog, mdck
MDR1 (ABCB1) [36] = biological target: T1, MDR1 (ABCB1); experiment: DNDI: % of compound recovered from apical to basolateral permeability assay in MDCK cells transfected with human MDR1 after 60 mins at a concentration of 3uM; assay type: ADME, cell-based, Canis lupus familiaris; conditions: dog
Trypanosoma brucei [37] = experiment: DNDI: Mean survival time in days (MSD) of mice after p.o. administration of Human African Trypanosomiasis (HAT), STIB 795, in vivo at 100 mg/kg/day for 4 days.; assay type: functional, Mus musculus; conditions: route oral
MDR1 (ABCB1) [38] = biological target: T1, MDR1 (ABCB1); experiment: as §3; assay type: ADME, cell-based, Canis lupus familiaris; conditions: dog, MDCK-MDR1
MDR1 (ABCB1) [39] = biological target: T1, MDR1 (ABCB1); experiment: DNDI: % of compound recovered from membrane of apical to basolateral permeability assay in MDCK cells transfected with human MDR1 after 60 mins at a concentration of 3uM in the presence of GF120918; assay type: ADME, cell-based, Canis lupus familiaris; conditions: dog, MDCK-MDR1, with GF120918 (concentration not stated); read-out: Mem Rec
MDR1 (ABCB1) [40] = biological target: T1, MDR1 (ABCB1); experiment: DNDI: % of compound recovered from membrane of apical to basolateral permeability assay in MDCK cells transfected with human MDR1 after 60 mins at a concentration of 3uM; assay type: ADME, cell-based, Canis lupus familiaris; conditions: dog, read-out: Mem Rec
MDR1 (ABCB1) [41] = biological target: T1, MDR1 (ABCB1); experiment: DNDI: % of compound recovered from apical to basolateral permeability assay in MDCK cells transfected with human MDR1 after 60 mins at a concentration of 3uM in the presence of GF120918; assay type: ADME, cell-based, Canis lupus familiaris; conditions: dog, MDCK-MDR1, with GF120918 (concentration not stated)
[42] = DNDI: half-life in mouse S9 microsomes at a concentration of 1uM; assay type: ADME, subcellular, Liver, S9 fraction
[43] = Trypanosoma brucei, SBRI 427, read-out: IC50

- microsomal CLint at 1 µM (in vitro [1]): 235 µL/min/mg
- IC50 (Trypanosoma brucei [2]; [43]): 4.47 µg/mL (≈ 17 µM)
- CLint in vitro [4]: 224 µL/min/mg
- chromatographic logD [5]: 2.93
- CLint in vitro [6]: 75 µL/min/mg
- microsomal CLint at 1 µM (in vitro [7]): 66 µL/min/mg
- t (1 / 2) [8]: 11 min
- half-life at 1 µM (in vitro [9]): 4 min
- solubility kinetic [10]: 13 µM (≈ 3.41 µg/mL)
- half-life at 1 µM (in vitro [11]): 13 min
SMILES: COc1ccc(/C(CNC2CCCCC2)=N/O)cc1
- IC50 at 24 h [3]: > 50 µg/mL

SMILES: COc1ccccc1Oc1ncccc1/C(=N\O)NC1CCCCC1
- microsomal CLint at 10 µM [12]: 138 µL/min/mg
- solubility kinetic [13]: 25 µM (≈ 8.54 µg/mL)
- IC50 (Trypanosoma brucei [2]; [43]): 0.78 µg/mL (≈ 2.28 µM)
- MSD (Trypanosoma brucei [14]): 4 days
- IC50 at 24 h [3]: > 50 µg/mL
- IC50 (Trypanosoma brucei [15]): 1.56 µg/mL (≈ 4.57 µM)
- recovery (MDR1 (ABCB1) [16]): 84%
- MSD (Trypanosoma brucei [17]): 4 days
- chromatographic logD [5]: 3.77
- MSD (Trypanosoma brucei [18]): 4 days
- Papp A→B (MDR1 (ABCB1) [19]): 18.4 ×10⁻⁶ cm/s
- MSD (Trypanosoma brucei [20]): 4.3 days
- recovery (MDR1 (ABCB1) [21]): 77%
- half-life at 10 µM [22]: 21 min
- efflux ratio (MDR1 (ABCB1) [23]; read-out: B-A/A-B): 2.6
- Papp B→A at 1 h, 3 µM (MDR1 (ABCB1) [24]): 48.3 ×10⁻⁶ cm/s
- MSD (Trypanosoma brucei [25]): 4 days
- MSD (Trypanosoma brucei [26]): 4 days

SMILES: CCCCc1ccc(-c2nc(CNCCC3CCCN3C)co2)cc1 (configuration not stated)
- remaining at 1 h, 1 µM [27]: 57.4%
- IC50 (Trypanosoma brucei [2]): 0.21 µg/mL (≈ 0.615 µM)
- IC50 (Trypanosoma brucei [2]; [43]): 0.19 µg/mL (≈ 0.556 µM)
- CLint in vitro [4]: 23 µL/min/mg
- MSD (Trypanosoma brucei [28]): 10 days
- chromatographic logD [5]: 4.69
- remaining at 1 µM [29]: 3.27%
- half-life at 1 µM (in vitro [9]): 37 min
- MSD (Trypanosoma brucei [30]): 7 days
- solubility kinetic [10]: 100 µM (≈ 34.1 µg/mL)
- IC50 at 72 h [31]: 4.21 µg/mL (≈ 12.3 µM)

SMILES: CN1CCCC1CCNCc1coc(-c2ccc(OC3CCCC3)cc2)n1 (configuration not stated)
- IC50 (Trypanosoma brucei [2]; [43]): 0.22 µg/mL (≈ 0.595 µM)
- MSD (Trypanosoma brucei [28]): <1 days
- IC50 at 72 h [31]: 1.33 µg/mL (≈ 3.6 µM)
- IC50 (L929): 1.42 µg/mL (≈ 3.84 µM)

- Papp [32]: 116.2 nm/s
- IC50 (Trypanosoma brucei [2]; [43]): 1.28 µg/mL (≈ 3.51 µM)
- Papp [33]: 211.1 nm/s
- chromatographic logD [5]: 4.85
- recovery at 1 h, 3 µM (MDR1 (ABCB1) [34]): 110%
- Calculated Ratio [35]: 0.45
- recovery at 1 h, 3 µM (MDR1 (ABCB1) [36]): 77.5%
- solubility kinetic [10]: 100 µM (≈ 36.4 µg/mL)
SMILES: CN(C)CCNc1nc(Oc2cccc3ccccc23)c2sccc2n1
- IC50 at 72 h [31]: 3.48 µg/mL (≈ 9.55 µM)

SMILES: CCCCc1ccc(-c2nc(CNCCCN(C)C)co2)cc1
- IC50 (Trypanosoma brucei [2]; [43]): 0.07 µg/mL (≈ 0.222 µM)
- CLint in vitro [4]: 9 µL/min/mg
- chromatographic logD [5]: 5.07
- half-life at 1 µM (in vitro [9]): 96 min
- MSD (Trypanosoma brucei [30]): 7 days
- solubility kinetic [10]: < 1 µM
- IC50 at 72 h [31]: 1.4 µg/mL (≈ 4.44 µM)
- MSD (Trypanosoma brucei [37]): 7 days

- Papp A→B at 1 h, 3 µM (MDR1 (ABCB1) [38]): 10.3 ×10⁻⁶ cm/s
- recovery at 1 h, 3 µM (MDR1 (ABCB1) [39]): 76.1%
- IC50 (Trypanosoma brucei [2]; [43]): 1.11 µg/mL (≈ 3.14 µM)
- recovery at 1 h, 3 µM (MDR1 (ABCB1) [40]): 88.4%
- chromatographic logD [5]: 4.15
- recovery at 1 h, 3 µM (MDR1 (ABCB1) [41]): 91%
- half-life at 1 µM [42]: > 350 min
- efflux ratio (MDR1 (ABCB1) [23]; MDCK-MDR1, read-out: Calculated Ratio): 0.08
- recovery at 1 h, 3 µM (MDR1 (ABCB1) [36]): 103%
- solubility kinetic [10]: 50 µM (≈ 17.7 µg/mL)
SMILES: CC(C)(C)c1cc(N2CCNCC2)n2nc(-c3ccc(F)cc3)cc2n1
- IC50 at 72 h [31]: 2.75 µg/mL (≈ 7.78 µM)
